Source: patent US10570122B2, “Compounds with anti-tumoral activity” (AB Science, priority 2015, dated 2020)

Columns and labels:
HL60 = test: CellTiter-Blue cell-based survival/proliferation assay, HL60; details: Homo sapiens, HL-60, Leukemia cell line HL60, 48 h, read-out: Anti-tumoral activity (measured IC50) HL60
Procedure: (§1) Cell-Based Proliferation Screening of Compounds
(§2) CellTiter-Blue cell-based survival/proliferation assay (Promega G8080) was performed on tumor cell lines. A total of 1·10^4 cells/well/50 μl were seeded in a 96-wells plate. Treatment was initiated by addition of a 2× drug solution of 1/10 serial dilutions ranging from 0 to 10 μM. Cells were grown for 48 h at 37° C. and then incubated with 10 μl/well of Promega CellTiter-Bleue reagent for 4 h at 37° C. The amount of resorufin dye formed was quantified by its fluorescence emission at 590 nm using a scanning multiwell spectrophotometer (OPTIMA, BMG labtech, France). A blank well without cells was used as a background control for the spectrophotometer.

HUT78 = test: CellTiter-Blue cell-based survival/proliferation assay, HUT78; details: Homo sapiens, Lymphoma cell line HUT78, 48 h, read-out: Anti-tumoral activity (measured IC50) HUT78
Procedure: as §1, §2

KARPAS299 = test: CellTiter-Blue cell-based survival/proliferation assay, KARPAS299; details: Homo sapiens, KARPAS-299, Lymphoma cell line KARPAS299, 48 h, read-out: Anti-tumoral activity (measured IC50) KARPAS299
Procedure: as §1, §2

REC1 = test: CellTiter-Blue cell-based survival/proliferation assay, REC1; details: Homo sapiens, Lymphoma cell line REC1, 48 h, read-out: Anti-tumoral activity (measured IC50) REC1
Procedure: as §1, §2

OPM2 = test: CellTiter-Blue cell-based survival/proliferation assay, OPM2; details: Homo sapiens, OPM-2, Myeloma cell line OPM2, 48 h, read-out: Anti-tumoral activity (measured IC50) OPM2
Procedure: as §1, §2

A498 = test: CellTiter-Blue cell-based survival/proliferation assay, A498; details: Homo sapiens; A498 kidney tumor cell line, 48 h
Procedure: as §1, §2

A549 = test: CellTiter-Blue cell-based survival/proliferation assay, A549; details: Homo sapiens; A549 lung tumor cell line, 48 h
Procedure: as §1, §2

ACHN = test: CellTiter-Blue cell-based survival/proliferation assay, ACHN; details: Homo sapiens; ACHN kidney tumor cell line, 48 h
Procedure: as §1, §2

AGS = test: CellTiter-Blue cell-based survival/proliferation assay, AGS; details: Homo sapiens; AGS stomach tumor cell line, 48 h
Procedure: as §1, §2

BT20 = test: CellTiter-Blue cell-based survival/proliferation assay, BT20; details: Homo sapiens, BT-20; BT20 breast tumor cell line, 48 h
Procedure: as §1, §2

BXPC3 = test: CellTiter-Blue cell-based survival/proliferation assay, BXPC3; details: Homo sapiens, BXPC-3; BXPC3 pancreas tumor cell line, 48 h
Procedure: as §1, §2

CALU6 = test: CellTiter-Blue cell-based survival/proliferation assay, CALU6; details: Homo sapiens, Calu-6; CALU6 lung tumor cell line, 48 h
Procedure: as §1, §2

CLS354 = test: CellTiter-Blue cell-based survival/proliferation assay, CLS354; details: Homo sapiens, CLS-354; CLS354_4 head & neck tumor cell line, 48 h
Procedure: as §1, §2

DLD1 = test: CellTiter-Blue cell-based survival/proliferation assay, DLD1; details: Homo sapiens, DLD-1; DLD_1 colorectal tumor cell line, 48 h
Procedure: as §1, §2

DU145 = test: CellTiter-Blue cell-based survival/proliferation assay, DU145; details: Homo sapiens, DU-145; DU145 prostate tumor cell line, 48 h
Procedure: as §1, §2

H1299 = test: CellTiter-Blue cell-based survival/proliferation assay, H1299; details: Homo sapiens, NCI-H1299; H1299 lung tumor cell line, 48 h
Procedure: as §1, §2

HCT116 = test: CellTiter-Blue cell-based survival/proliferation assay, HCT116; details: Homo sapiens, HCT-116; HCT116 colorectal tumor cell line, 48 h
Procedure: as §1, §2

HEP2 = test: CellTiter-Blue cell-based survival/proliferation assay, HEP2; details: Homo sapiens, HEp-2; HEP2 head & neck tumor cell line, 48 h
Procedure: as §1, §2

HEPG2 = test: CellTiter-Blue cell-based survival/proliferation assay, HEPG2; details: Homo sapiens; HEPG2 liver tumor cell line, 48 h
Procedure: as §1, §2

HGC27 = test: CellTiter-Blue cell-based survival/proliferation assay, HGC27; details: Homo sapiens, HGC-27; HGC27 stomach tumor cell line, 48 h
Procedure: as §1, §2

MDAMB231 = test: CellTiter-Blue cell-based survival/proliferation assay, MDAMB231; details: Homo sapiens, MDA-MB-231; MDAMB231 breast tumor cell line, 48 h
Procedure: as §1, §2

MESSA = test: CellTiter-Blue cell-based survival/proliferation assay, MESSA; details: Homo sapiens, MES-SA; MESSA ovary tumor cell line, 48 h
Procedure: as §1, §2

PANC1 = test: CellTiter-Blue cell-based survival/proliferation assay, PANC1; details: Homo sapiens, PANC-1; PANC_1 pancreas tumor cell line, 48 h
Procedure: as §1, §2

PC3 = test: CellTiter-Blue cell-based survival/proliferation assay, PC3; details: Homo sapiens, PC-3; PC3 prostate tumor cell line, 48 h
Procedure: as §1, §2

PLCPRF5 = test: CellTiter-Blue cell-based survival/proliferation assay, PLCPRF5; details: Homo sapiens, PLC-PRF-5; PLC_PRF5 liver tumor cell line, 48 h
Procedure: as §1, §2

SW579 = test: CellTiter-Blue cell-based survival/proliferation assay, SW579; details: Homo sapiens; SW579 head & neck tumor cell line, 48 h
Procedure: as §1, §2

TOV112D = test: CellTiter-Blue cell-based survival/proliferation assay, TOV112D; details: Homo sapiens; TOV112D ovary tumor cell line, 48 h
Procedure: as §1, §2

[1] = tested on: panel of about 34 human tumor cell lines; test: Cell-based proliferation screening on panel of tumor cell lines; details: solid tumor cell line, cell line unknown, 48 h, read-out: IC50, solid tumor cell line of column 6 (last section of Table 3)
Procedure: Compounds of formula (I) were tested against a panel of about 34 human tumor cell lines representing 17 cancer type, namely leukemia (represented by 1 cell line), lymphoma (4 cell lines), myeloma (1 cell line), colorectal (2 cell lines), head and neck (3 cell lines), lung (3 cell lines), melanoma (2 cell lines), pancreas (2 cell lines), prostate (2 cell lines), ovary (2 cell lines) breast (2 cell lines), kidney (2 cell lines), stomach (2 cell lines), liver (2 cell lines), glioblastoma (2 cell lines), osteosarcoma (1 cell line), Ewing Sarcoma (1 cell line).
as §1, §2

Structure (SMILES) | IC50 (HL60) | IC50 (HUT78) | IC50 (KARPAS299) | IC50 (REC1) | IC50 (OPM2) | IC50 (A498) | IC50 (A549) | IC50 (ACHN) | IC50 (AGS) | IC50 (BT20) | IC50 (BXPC3) | IC50 (CALU6) | IC50 (CLS354) | IC50 (DLD1) | IC50 (DU145) | IC50 (H1299) | IC50 (HCT116) | IC50 (HEP2) | IC50 (HEPG2) | IC50 (HGC27) | other results
CCOCc1cc(COCC)cc(Nc2ncc(-c3ccc(-n4cccn4)cc3)o2)c1 [Example 022, (3,5-Bis-(ethoxymethyl)-phenyl)-[5-(4-pyrazol-1-yl-phenyl)-oxazol-2-yl]-amine] | > 1000 nM | > 1000 nM | 100 to 500 nM | 500 to 1000 nM | 500 to 1000 nM | > 1000 nM | > 1000 nM | > 1000 nM | > 1000 nM | > 1000 nM | > 1000 nM | > 1000 nM | > 1000 nM | > 1000 nM | > 1000 nM | > 1000 nM | > 1000 nM | > 1000 nM | > 1000 nM | > 1000 nM | IC50 (MDAMB231): > 1000 nM; IC50 (MESSA): > 1000 nM; IC50 (PANC1): > 1000 nM; IC50 (PC3): > 1000 nM; IC50 (PLCPRF5): > 1000 nM; IC50 (SW579): > 1000 nM; IC50 (TOV112D): > 1000 nM; IC50 [1]: 500 to 1000 nM
COc1ccc(C)c(Nc2ncc(-c3ccc(-n4cccn4)cc3)o2)c1 [Example 023, (5-Methoxy-2-methyl-phenyl)-[5-(4-pyrazol-1-yl-phenyl)-oxazol-2-yl]-amine] | 100 to 500 nM | 100 to 500 nM | 100 to 500 nM | 100 to 500 nM | 100 to 500 nM | > 1000 nM | > 1000 nM | > 1000 nM | > 1000 nM | > 1000 nM | > 1000 nM | > 1000 nM | 100 to 500 nM | > 1000 nM | > 1000 nM | > 1000 nM | > 1000 nM | > 1000 nM | > 1000 nM | > 1000 nM | IC50 (MDAMB231): > 1000 nM; IC50 (MESSA): > 1000 nM; IC50 (PANC1): > 1000 nM; IC50 (PC3): > 1000 nM; IC50 (PLCPRF5): > 1000 nM; IC50 (SW579): > 1000 nM; IC50 (TOV112D): > 1000 nM; IC50 [1]: 100 to 500 nM
Cc1ccc(COCCN)cc1Nc1ncc(-c2ccc(-n3cccn3)cc2)o1 [Example 024, [5-(2-Amino-ethoxymethyl)-2-methyl-phenyl]-[5-(4-pyrazol-1-yl-phenyl)-oxazol-2-yl]-amine] | > 1000 nM | > 1000 nM | > 1000 nM | > 1000 nM | > 1000 nM | > 1000 nM | > 1000 nM | > 1000 nM | > 1000 nM | > 1000 nM | > 1000 nM | > 1000 nM | > 1000 nM | > 1000 nM | > 1000 nM | > 1000 nM | > 1000 nM | > 1000 nM | > 1000 nM | > 1000 nM | IC50 (MDAMB231): > 1000 nM; IC50 (MESSA): > 1000 nM; IC50 (PANC1): > 1000 nM; IC50 (PC3): > 1000 nM; IC50 (PLCPRF5): > 1000 nM; IC50 (SW579): > 1000 nM; IC50 (TOV112D): > 1000 nM; IC50 [1]: > 1000 nM
